The values that follow come from patent US12551498B2, “Treatment of P53-deficient cancers” (Health Research, Inc., priority 2019, dated 2026).

The test system of data set [1] is p53-deficient cancer cell lines. In words: Cytotoxicity assay, p53-deficient (p53mt) cancer cell lines. Type of data set: cell-based, human. How it is done:
(§1) Cells were plated at a density of 5,000 cells/well in a 96 well-plate and then treated with the appropriate drugs at varying concentrations for 24 hours. Media was replenished with media with or without PARP inhibitors and cell were incubated for 96 hours. Cells were stained with 1% Methylene Blue for 30 minutes, rinsed with water, dried and then solubilized in 5% SDS in PBS, and read at 650 nm. IC50 values were generated using GraphPad Prism8 (Version 8.4.2).
(§2) Cytotoxicity Assay: Cells were plated at a density of 5,000 cells/well in a 96 well-plate and then treated with the appropriate drugs at varying concentrations for 24 hours. Media was replenished with media with or without PARP inhibitors and cell were incubated for 96 hours. Cells were stained with 1% Methylene Blue for 30 minutes, rinsed with water, dried and then solubilized in 5% SDS in PBS, and read at 650 nm. IC50 values were generated using GraphPad Prism8 (Version 8.4.2).

A further data set concerns γH2AX in MCF10A cells. In words: DNA damage marker γH2AX, p53wt MCF10A. Type of data set: cell-based, human. How it is done: (§3) Cells were grown on glass coverslips (22×22 mm) and treated with inhibitors for various times, then fixed with 4% PFA and permeabilized with 0.05% Triton X-100. For γH2AX staining samples were blocked with 3% milk in PBS for 30 min at room temperature (RT), and then incubated for 1 h with antibodies to γH2AX (1:400) in 1% milk/PBS followed by incubation with Texas red-conjugated secondary antibody (1:500) for 30 min at RT. For evaluation of genomic EdU, cells were grown on glass coverslips, and then pulse-labeled with EdUrd as described for flow cytometry. Cells were fixed at various times with 4% PFA and permeabilized with 0.05% Triton X-100, and then EdU was labeled with Cy3 azide using ‘click-it’ reaction as described above. DNA was labeled with Hoechst 33342 before mounting on glass slides. Fluorescence images were taken with a Plan Apochromat 60×/1.40 NA oil objective at ambient temperature using Nikon TE2000-E inverted microscope equipped with a charge-coupled device camera (CoolSNAP HQ; Photometrics). The images were acquired using MetaVue imaging software (v7.7.3, Molecular Devices). Experiments were repeated twice with representative images shown.
(§4) Immunoblotting: Tumor cells were seeded in a 6-well plate at 300,000 cells/well and treated with various reagents. Whole-cell lysates were prepared using NP40 lysis buffer containing PMSF, Na-Orthovanadate, and protease inhibitor cocktail. Snap-frozen tumor tissues were ground and suspended in NP40 lysis buffer. Protein concentrations in lysates were quantitated and 15 μg of protein/lane were resolved on a 10% SDS-PAGE gel. Proteins were transferred onto a nitrocellulose membrane in 10% Methanol-SDS buffer and probed with appropriate antibodies. ECL reagent was used to visualize immune-complexes on radiographic films.

Data set [2] concerns γH2AX in p53mt MDA-MB-231 cells. In words: DNA damage marker γH2AX, p53mt cancer cells. The settings on record: p53mt / p53-deficient cells. The data set is classed as cell-based, human. How it is done:
as §3
Immunoblotting: Tumor cells were seeded in a 6-well plate at 300,000 cells/well and treated with various reagents. […] Protein concentrations in lysates were quantitated and 15 μg of protein/lane were resolved on a 10% SDS-PAGE gel. […]

The subject of data set [3] is MDA-MB-231 cells. Put plainly: EdU-removal assay / genomic EdU, MDA-MB-231. Type of data set: cell-based, human. How it is done:
(§5) All samples were analyzed on an LSRFortessa Cytometer (BD Biosciences) running FACSDiva (Version 6.1.3), and the data were processed using FCS Express 7 (Version 7.04.0016). For the EdUrd pulse experiments, 300,000 cells per well were seeded in a 6-well plate, and the following day media was replaced with base media containing 5% dialyzed FBS. Cells were then incubated with 10 μM EdUrd for two hours, while untreated cells served as the negative control. Following the two-hour pulse, cells were washed twice with DPBS and the media was replenished. Collection of cells began at t=0 hr up to t=72 hr post EdUrd-pulse. Cells were collected using standard trypsinization, washed in 1% BSA in DPBS, and fixed in 4% paraformaldehyde for 15 minutes. Cells underwent two more washes in 1% BSA/DPBS before being permeabilized in 1× saponin buffer. […] Samples were sorted using a BD LSRFortessa cytometer running FACSDiva (Version 6.1.3), and the data were analyzed using ModFit Lt software (Version 5.0.9). […]
(§6) Cells were grown on glass coverslips (22×22 mm) and treated with inhibitors for various times, then fixed with 4% PFA and permeabilized with 0.05% Triton X-100. […] Fluorescence images were taken with a Plan Apochromat 60×/1.40 NA oil objective at ambient temperature using Nikon TE2000-E inverted microscope equipped with a charge-coupled device camera (CoolSNAP HQ; Photometrics). […]

For data set [4], the system named is p53-p21 signaling in MCF10A cells. In words: p53-p21 signaling immunoblot, MCF10A. Type of data set: cell-based, human. The note with it: for p53-p21 signaling response: MCF10A (p53wt). How it is done: as §4
Data set [5] can be described thus: Cytotoxicity assay (methylene blue), MCF10A. The note with it: human, MCF10A cells (p53wt), single agent, read-out: IC50, cytotoxicity, drug alone. Type of data set: cell-based, human. The procedure:
as §1, §2

The test system of data set [6] is MDA-MB-231 cells. Put plainly: Cytotoxicity assay (methylene blue), MDA-MB-231. Type of data set: cell-based, human. The settings on record: single agent, read-out: IC50, cytotoxicity, drug alone. How it is done:
as §1, §2

Data set [7] concerns the target thymidylate synthase (TS) (Homo sapiens, UniProt P04818). The note with it: cited from earlier work.
The next data set concerns MDA-MB-231 tumors. The data set is classed as in vivo. The settings on record: 5 days-on, 2 days-off. The procedure:
Tumor growth was monitored by measuring tumor diameters with electronic calipers twice/week. Volumes were calculated using the formula (length)×(width)2/2. Mouse weights were measured twice/week. […] Drugs were given at 50 mg/kg by oral gavage on schedule 5-days-on and 2-days-off. At the endpoint, mice were euthanized and subjected to necropsy and organ collection. Tumor tissues were collected for RNA and protein analyses by snap-freezing in liquid nitrogen. Blood was collected for CBC by cardiac puncture.
Statistical significance of data comparisons were determined using the Student's unpaired t-test with a two-tailed distribution. Statistical significance was achieved when P<0.05. […]

For data set [8], the system named is MCF10A cells. Put plainly: Cell cycle analysis by flow cytometry, MCF10A. Type of data set: cell-based, human. The settings on record: MCF10A (p53wt). The procedure:
as §5
(§7) Flow cytometry: All samples were analyzed on an LSRFortessa Cytometer (BD Biosciences) running FACSDiva (Version 6.1.3), and the data were processed using FCS Express 7 (Version 7.04.0016). […] Samples were sorted using a BD LSRFortessa cytometer running FACSDiva (Version 6.1.3), and the data were analyzed using ModFit Lt software (Version 5.0.9). […]

The test system of data set [9] is MCF10A cells. Put plainly: Cytotoxicity assay (methylene blue), MCF10A. The settings on record: MCF10A (p53wt), single agent; read-out: IC50, cytotoxicity, drug alone. The data set is classed as cell-based, human. How it is done:
as §1, §2

In data set [10] the test system is p53-p21 signaling in MDA-MB-231 cells. In words: p53-p21 signaling immunoblot, MDA-MB-231. Type of data set: cell-based, human. The note with it: MDA-MB-231 (p53mt). How it is done: as §4
Background: In western blotting, separated proteins are transferred to a membrane and probed.

The subject of data set [11] is PARylation activity in MCF10A and MDA-MB-231 cells. In words: Inhibition of PARylation activity in cell culture (immunoblot). The settings on record: 24 hrs. Type of data set: cell-based, human. The procedure: as §4
Data set [12] has as its system MCF10A cells. Put plainly: EdU-removal assay, MCF10A. The data set is classed as cell-based, human. The note with it: 0.5 μM Olaparib after 2 hr EdU pulse. How it is done: as §5, §6
Data set [13] concerns MDA-MB-231 cells. Put plainly: Cell cycle analysis by flow cytometry, p53mt cancer cells. Type of data set: cell-based, human. The procedure:
as §5, §7
Background: Flow cytometry measures light scatter and fluorescence of single cells or particles in a stream.

The next data set concerns MIAPACA-2 tumors. Put plainly: MIAPACA-2 subcutaneous pancreatic cancer xenograft in mice. The data set is classed as in vivo. The settings on record: 50 mg/kg each drug, oral gavage, 5 days-on, 2 days-off. The procedure:
Tumor growth was monitored by measuring tumor diameters with electronic calipers twice/week. […] Drugs were given at 50 mg/kg by oral gavage on schedule 5-days-on and 2-days-off. At the endpoint, mice were euthanized and subjected to necropsy and organ collection. Tumor tissues were collected for RNA and protein analyses by snap-freezing in liquid nitrogen. Blood was collected for CBC by cardiac puncture.
Statistical significance was achieved when P<0.05.

The subject of data set [14] is BRCA1-deficient cell lines. The note with it: cited from earlier work.
Where [15] appears, read: Homo sapiens, MDA-MB-231, MDA-MB-231 (p53mt).

Where “and” joins values, the source holds several entries; their conditions need not be identical. Identical values can stand only once. Entries after “also recorded” stand apart in the source; their conditions may differ. Like-named read-outs stand apart in the source and are kept apart here.

By IC50 is commonly meant the concentration that inhibits the measured activity by half.

Sequence of thymidylate synthase (TS) (P04818 whole entry, species assumed): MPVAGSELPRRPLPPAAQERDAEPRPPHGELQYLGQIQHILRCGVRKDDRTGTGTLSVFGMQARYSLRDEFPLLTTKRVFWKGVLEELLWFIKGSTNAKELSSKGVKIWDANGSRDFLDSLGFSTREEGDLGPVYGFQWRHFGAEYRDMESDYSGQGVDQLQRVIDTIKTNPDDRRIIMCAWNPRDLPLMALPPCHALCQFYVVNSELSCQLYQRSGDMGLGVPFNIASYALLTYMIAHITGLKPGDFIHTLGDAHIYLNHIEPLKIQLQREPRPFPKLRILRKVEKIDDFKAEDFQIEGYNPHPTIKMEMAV

With `O=c1[nH]cc(F)c(=O)[nH]1` [5FU, 5-fluoro-uracil], the “Cooperation of 5FU with olaparib in cytotoxicity” value in [1] (olaparib 0.5 μM; tested cell lines) is “did not cooperate with olaparib; also recorded: does not enhance cytotoxicity”.
Take `C#Cc1cn([C@H]2C[C@H](O)[C@@H](CO)O2)c(=O)[nH]c1=O` [EdUrd, 5-ethynyl-2′-deoxy-uridine]: the “γH2AX (DNA damage) response” value is listed as “transient increase of γH2AX levels” in the data set on γH2AX in MCF10A cells and “continued accumulation of DNA damage signal” in [2]. For the same molecule, in the data set with MDA-MB-231 cells [3] (24 hrs after 2 hr EdUrd pulse, flow cytometry), the “Increase of EdU+ fraction after EdUrd-pulse” value is reported as ~25%.
`O=c1[nH]c(=O)n([C@H]2C[C@H](O)[C@@H](CO)O2)cc1F` [FdUrd, 5-fluoro-2′-deoxyuridine]: the “γH2AX (DNA damage) response” value in the data set on γH2AX in MCF10A cells is “induced transiently at 6 hrs of FdU exposure and declined by 48 hrs”; in data set [2], “induced by 24 hrs and remained at high levels at 48 hrs”. Also, in [4], the p53-p21 signaling response entry is on record as “induced p53-p21 signaling”. The 50% inhibitory concentration (IC50) at 24 h in data set [5] is 1.6 µM. Moreover, the IC50 with MDA-MB-231 cells [6] (setting [15]) was found to be 5.5 µM.
As to `COc1ccc(C2=N[C@@H](c3ccc(Cl)cc3)[C@@H](c3ccc(Cl)cc3)N2C(=O)N2CCNC(=O)C2)c(OC(C)C)c1` [Nutlin-3A], in the data set with γH2AX in MCF10A cells, the “γH2AX (DNA damage) response” value is on record as “did not induce DNA damage γH2AX marker”.
With `O=c1[nH]c(=O)n([C@H]2C[C@H](O)[C@@H](CO)O2)cc1C(F)(F)F` [TFT, 5-trifluoro-2′-deoxythymidine], in data set [7], the “Inhibition of TS” value was 0.38 nM.
For the molecule `O=C(c1cc(Cc2n[nH]c(=O)c3ccccc23)ccc1F)N1CCN(C(=O)C2CC2)CC1` [olaparib], the “Median survival (time-to-arrive at 300 mm3 tumor size)” value with MDA-MB-231 tumors (50 mg/kg each drug, oral gavage) was found to be 21 days. Moreover, the Tumor growth entry with MDA-MB-231 tumors (50 mg/kg oral gavage) is “did not affect tumor growth”. The “Concentration activating p53-p21 signaling” value in [4] (MCF10A) was found to be 200 nM. In addition, the results for the p53-p21 signaling response entry in data set [4] and in data set [10] were “induced p53-p21 signaling” and “p21 was not regulated; also recorded: no response was observed”, respectively. Also, the “Concentration inducing p53-p21 signaling” value in data set [4] (MCF10A, 24 hrs) was 0.2 to 0.5 µM. Further, the Cell cycle effect entry with MCF10A cells [8] was “increased G1-population”; with MDA-MB-231 cells [13] it was “increased G2 fraction at the expense of S phase”. In addition, the IC50 in the data set on MCF10A cells [9] was 15.3 µM; in the data set on MDA-MB-231 cells [6] (setting [15]), 17.6 µM; in the data set on MDA-MB-231 cells [6] (MDA-MB-231 (p53mt)), 17.4 µM; in [1] (Homo sapiens, read-out: IC50 for cancer cells, PARPi alone), 16 to 24 µM; in data set [14] it was < 1 µM. For the same molecule, in [5], the IC50 at 24 h amounted to 14.5 µM. Besides, in [11], the “Concentration inhibiting PARylation activity in cells” value was 100 to 500 nM and 50 to 100 nM. Also, the “Effect on removal of EdU” value is listed as “significantly delayed removal of EdU” with MCF10A cells [12] and “had no effect” in the data set on MDA-MB-231 cells [3] (MDA-MB-231, 0.5 μM Olaparib after 2 hr EdU pulse). For the same molecule, the “Median survival (time-to-arrive at 500 mm3 tumor size)” value in the data set on MIAPACA-2 tumors is recorded as 21 days.
On to `Cn1ncnc1[C@H]1c2n[nH]c(=O)c3cc(F)cc(c23)N[C@@H]1c1ccc(F)cc1` [talazoparib], for which the p53-p21 signaling response result in data set [4] is “p21 induction was observed only in p53wt cells”. The “Concentration inhibiting PARylation activity in cells” value in [11] turned out to be 50 nM. The Cell cycle effect entry with MDA-MB-231 cells [13] was “increased G2 fraction at the expense of S phase”. Besides, in data set [1] (Homo sapiens; read-out: IC50 for cancer cells, PARPi alone), the IC50 fell in the range of 2 to 4 µM.
